Values after ≈ are worked out from the molar mass of the structure shown.
How the values were obtained:
MRSP SP3 = assay: Time-kill analysis against MRSP; assay type: cell-based, Staphylococcus pseudintermedius; settings: 4 × MIC, MRSP SP3, 24 hour incubation at 37°C
Experimental: MRSP SP3 cells in late logarithmic growth phase were diluted to ~1 × 10^6 CFU/mL and exposed to concentrations equivalent to 4 × MIC (in triplicate) of thiazole compounds 1–6 and rifampicin in MHB. Samples (20 μL) were collected after 0, 2, 4, 6, 8, 10, 12, and 24 hours of incubation at 37°C and subsequently serially diluted in PBS. Bacteria were then transferred to TSA plates and incubated at 37°C for 20–24 hours before viable CFU/mL values were determined.

[1] = tested on: methicillin-resistant Staphylococcus pseudintermedius; assay: MBC determination against MRSP clinical isolates; assay type: cell-based; settings: six MRSP isolates
Experimental: The MBC was determined by plating 5 μL from wells on the 96-well microtiter plate (where the MIC was determined) where no growth was observed onto Tryptic soy agar (TSA) plates. […] The MBC was categorized as the concentration where ≥99% reduction in bacterial cell count was observed.

MRSP (SP3) = assay: Multi-step resistance selection; assay type: cell-based, Staphylococcus pseudintermedius
Experimental: To assess the ability of MRSP to develop resistance to the thiazole compounds, a multi-step resistance selection experiment was performed, as described elsewhere. The broth microdilution method for MIC determination against a clinical isolate of MRSP (SP3) was repeated for ten passages over a period of ten days. The initial inoculum was prepared to a McFarland standard of 0.5. The solution was subsequently diluted 1:300 in MHB to reach a starting inoculum of 1 × 10^5 CFU/mL. For each subsequent passage, the inoculum for the MIC determination was adjusted to a final density of approximately 5 × 10^5 CFU/mL using the contents of a well containing a subinhibitory concentration of the compound (where bacterial growth was observed from the previous passage). Bacteria were then transferred to a new 96-well microtiter plate.

[2] = human liver microsomes; cited from earlier work

For `CCCCC#Cc1ccc(-c2nc(C)c(/C(C)=N/NC(=N)N)s2)cc1` [Compound 3], the “time required to completely eliminate MRSP” value (MRSP SP3) was “within two hours”, the MBC ([1]; Staphylococcus pseudintermedius, read-out: MBC50) was 0.71 µg/mL (≈ 2.01 µM) and the “MBC Range” value [1] was 0.18 to 1.41 µg/mL. For the same molecule, the “development of resistance by MRSP” value (MRSP (SP3); MRSP SP3, ten passages, resistance = greater than four-fold increase in initial MIC) was “not able to develop resistance”, the “shift in the MIC over ten passages” value (MRSP (SP3); MRSP SP3, ten serial passages) was “no change” and the MIC (MRSP (SP3); Staphylococcus pseudintermedius, read-out: initial MIC) was 1.41 µg/mL (≈ 3.99 µM). For the same molecule, the clearance rate [2] was 3.7 µL/min/mg and the half-life [2] was “more than 240 minutes”.
